Experiments:
Type in all cases: biochemical
[1] = system: creatine kinase (CK); assay: CK functional stability of the reagent with Na2SO3 (example 1); settings: for CK functional stability, 35° C. compared to 2 to 8° C.: 14 days storage
Procedure: (§1) For the determination 250 μl R1 is mixed with 10 μl sample, incubated for 5 minutes, the reaction is started with 50 μl R2 and the CK activity is measured after incubating for a further 1 minute. The CK or G6P-DH enzyme activity was determined after storage at 2 to 8° C. or 35° C. for various periods (table 1-3,FIGS. 1-3).

[2] = system: G6P-DH; assay: G6P-DH stability in the reagent with Na2SO3, 14 days storage (example 1); settings: for G6P-DH stability, 35° C. compared to 2 to 8° C.: 14 days storage
Procedure: as §1

[3] = system: creatine kinase (CK); assay: Influence of the amount of sulfite on the CK activity (example 2)
Procedure: as §1
The reagent composition and the test procedure are essentially analogous to example 1. Only the amount of sodium sulfite (0 to 20 mmol/l) added to reagent 1 was varied.

[4] = system: creatine kinase (CK); assay: Regeneration of the CK in R1 by adding sulfite in R2 (example 4); settings: 10 mmol/l sulfite in R2
Procedure: as §1
The mixing of R1, R2 and the respective sample and the subsequent determination were carried out according to example 1.

[5] = system: G6P-DH; assay: Long-term stability G6P-DH, 10 mmol/l DTT compared to 1 mmol/l Na2SO3; settings: 1 mmol/l sulfite, example 1
Procedure: as §1
The reagent R was combined with the sample to be measured as described in example 1 and the corresponding enzyme activities were determined (table 5,FIG. 5).

[6] = 1 mmol/l Na2SO3 in reagent 1, sample 1
[7] = 1 mmol/l Na2SO3 in reagent 1, sample 2
[8] = 2 mmol/l Na2SO3 in reagent 1, sample 1
[9] = 2 mmol/l Na2SO3 in reagent 1, sample 2
[10] = 3 mmol/l Na2SO3 in reagent 1, sample 1
[11] = 3 mmol/l Na2SO3 in reagent 1, sample 2
[12] = 4 mmol/l Na2SO3 in reagent 1, sample 1
[13] = 4 mmol/l Na2SO3 in reagent 1, sample 2

O=S([O-])[O-].[Na+].[Na+] [Na2SO3, sodium sulfite]
CK activity, 14 days storage at 2 to 8° C. [1, 6]: 278 U/l
CK activity, 14 days storage at 35° C. [1, 6]: 267 U/l
CK functional stability, 35° C. compared to 2 to 8° C. [1, 6]: 96.0%
CK activity, 14 days storage at 2 to 8° C. [1, 7]: 540 U/l
CK activity, 14 days storage at 35° C. [1, 7]: 512 U/l
CK functional stability, 35° C. compared to 2 to 8° C. [1, 7]: 94.8%
CK activity, 14 days storage at 2 to 8° C. [1, 8]: 274 U/l
CK activity, 14 days storage at 35° C. [1, 8]: 265 U/l
CK functional stability, 35° C. compared to 2 to 8° C. [1, 8]: 97.0%
CK activity, 14 days storage at 2 to 8° C. [1, 9]: 530 U/l
CK activity, 14 days storage at 35° C. [1, 9]: 510 U/l
CK functional stability, 35° C. compared to 2 to 8° C. [1, 9]: 96.2%
CK activity, 14 days storage at 2 to 8° C. [1, 10]: 271 U/l
CK activity, 14 days storage at 35° C. [1, 10]: 267 U/l
CK functional stability, 35° C. compared to 2 to 8° C. [1, 10]: 98.5%
CK activity, 14 days storage at 2 to 8° C. [1, 11]: 523 U/l
CK activity, 14 days storage at 35° C. [1, 11]: 503 U/l
CK functional stability, 35° C. compared to 2 to 8° C. [1, 11]: 96.2%
CK activity, 14 days storage at 2 to 8° C. [1, 12]: 260 U/l
CK activity, 14 days storage at 35° C. [1, 12]: 272 U/l
CK functional stability, 35° C. compared to 2 to 8° C. [1, 12]: 104.4%
CK activity, 14 days storage at 2 to 8° C. [1, 13]: 505 U/l
CK activity, 14 days storage at 35° C. [1, 13]: 521 U/l
CK functional stability, 35° C. compared to 2 to 8° C. [1, 13]: 103.1%
G6P-DH activity, 14 days storage at 2 to 8° C. ([2]; 1 mmol/l Na2SO3 in reagent 1): 3.95 U/l
G6P-DH activity, 14 days storage at 35° C. ([2]; 1 mmol/l Na2SO3 in reagent 1): 1.50 U/l
G6P-DH stability, 35° C. compared to 2 to 8° C. ([2]; 1 mmol/l Na2SO3 in reagent 1): 38.1%
G6P-DH activity, 14 days storage at 2 to 8° C. ([2]; 2 mmol/l Na2SO3 in reagent 1): 3.92 U/l
G6P-DH activity, 14 days storage at 35° C. ([2]; 2 mmol/l Na2SO3 in reagent 1): 1.57 U/l
G6P-DH stability, 35° C. compared to 2 to 8° C. ([2]; 2 mmol/l Na2SO3 in reagent 1): 39.9%
G6P-DH activity, 14 days storage at 2 to 8° C. ([2]; 3 mmol/l Na2SO3 in reagent 1): 3.98 U/l
G6P-DH activity, 14 days storage at 35° C. ([2]; 3 mmol/l Na2SO3 in reagent 1): 1.69 U/l
G6P-DH stability, 35° C. compared to 2 to 8° C. ([2]; 3 mmol/l Na2SO3 in reagent 1): 42.5%
G6P-DH activity, 14 days storage at 2 to 8° C. ([2]; 4 mmol/l Na2SO3 in reagent 1): 4.06 U/l
G6P-DH activity, 14 days storage at 35° C. ([2]; 4 mmol/l Na2SO3 in reagent 1): 1.76 U/l
G6P-DH stability, 35° C. compared to 2 to 8° C. ([2]; 4 mmol/l Na2SO3 in reagent 1): 43.5%
CK activity, Sample 1 ([3]; sulfite 1 mmol/l test): 242 U/l
CK activity, Sample 2 ([3]; sulfite 1 mmol/l test): 530 U/l
CK function relative to 0 mmol/l sulfite, Sample 1 ([3]; sulfite 1 mmol/l test): 102.9%
CK function relative to 0 mmol/l sulfite, Sample 2 ([3]; sulfite 1 mmol/l test): 100.2%
CK activity, Sample 1 ([3]; sulfite 2 mmol/l test): 239 U/l
CK activity, Sample 2 ([3]; sulfite 2 mmol/l test): 520 U/l
CK function relative to 0 mmol/l sulfite, Sample 1 ([3]; sulfite 2 mmol/l test): 101.4%
CK function relative to 0 mmol/l sulfite, Sample 2 ([3]; sulfite 2 mmol/l test): 98.4%
CK activity, Sample 1 ([3]; sulfite 3 mmol/l test): 236 U/l
CK activity, Sample 2 ([3]; sulfite 3 mmol/l test): 514 U/l
CK function relative to 0 mmol/l sulfite, Sample 1 ([3]; sulfite 3 mmol/l test): 100.3%
CK function relative to 0 mmol/l sulfite, Sample 2 ([3]; sulfite 3 mmol/l test): 97.2%
CK activity, Sample 1 ([3]; sulfite 4 mmol/l test): 227 U/l
CK activity, Sample 2 ([3]; sulfite 4 mmol/l test): 496 U/l
CK function relative to 0 mmol/l sulfite, Sample 1 ([3]; sulfite 4 mmol/l test): 96.4%
CK function relative to 0 mmol/l sulfite, Sample 2 ([3]; sulfite 4 mmol/l test): 93.8%
CK activity, Sample 1 ([3]; sulfite 5 mmol/l test): 215 U/l
CK activity, Sample 2 ([3]; sulfite 5 mmol/l test): 504 U/l
CK function relative to 0 mmol/l sulfite, Sample 1 ([3]; sulfite 5 mmol/l test): 91.3%
CK function relative to 0 mmol/l sulfite, Sample 2 ([3]; sulfite 5 mmol/l test): 95.3%
CK activity, Sample 1 ([3]; sulfite 10 mmol/l test): 196 U/l
CK activity, Sample 2 ([3]; sulfite 10 mmol/l test): 464 U/l
CK function relative to 0 mmol/l sulfite, Sample 1 ([3]; sulfite 10 mmol/l test): 83.2%
CK function relative to 0 mmol/l sulfite, Sample 2 ([3]; sulfite 10 mmol/l test): 87.7%
CK activity, Sample 1 ([3]; sulfite 20 mmol/l test): 182 U/l
CK activity, Sample 2 ([3]; sulfite 20 mmol/l test): 441 U/l
CK function relative to 0 mmol/l sulfite, Sample 1 ([3]; sulfite 20 mmol/l test): 77.3%
CK function relative to 0 mmol/l sulfite, Sample 2 ([3]; sulfite 20 mmol/l test): 83.3%
CK activity, Sample 1 ([4]; R1 stress 14 days 2-8° C.): 238 U/l
CK activity, Sample 2 ([4]; R1 stress 14 days 2-8° C.): 509 U/l
recovery sample 1 (vs. fresh reagent) ([4]; R1 stress 14 days 2-8° C.): 100.8%
recovery sample 2 (vs. fresh reagent) ([4]; R1 stress 14 days 2-8° C.): 99.5%
CK activity, Sample 1 ([4]; R1 stress 14 days 35° C.): 227 U/l
CK activity, Sample 2 ([4]; R1 stress 14 days 35° C.): 486 U/l
recovery sample 1 (vs. fresh reagent) ([4]; R1 stress 14 days 35° C.): 96.2%
recovery sample 2 (vs. fresh reagent) ([4]; R1 stress 14 days 35° C.): 94.7%
G6P-DH activity ([5]; 0 days at 2 to 8° C.): 3.68 U/ml
G6P-DH activity relative to day 0 ([5]; 0 days at 2 to 8° C.): 100.0%
G6P-DH activity ([5]; 55 days at 2 to 8° C.): 3.65 U/ml
G6P-DH activity relative to day 0 ([5]; 55 days at 2 to 8° C.): 99.2%
G6P-DH activity ([5]; 85 days at 2 to 8° C.): 3.77 U/ml
G6P-DH activity relative to day 0 ([5]; 85 days at 2 to 8° C.): 102.3%
G6P-DH activity ([5]; 114 days at 2 to 8° C.): 3.57 U/ml
G6P-DH activity relative to day 0 ([5]; 114 days at 2 to 8° C.): 96.9%
G6P-DH activity ([5]; 136 days at 2 to 8° C.): 3.35 U/ml
G6P-DH activity relative to day 0 ([5]; 136 days at 2 to 8° C.): 91.0%
G6P-DH activity ([5]; 192 days at 2 to 8° C.): 3.15 U/ml
G6P-DH activity relative to day 0 ([5]; 192 days at 2 to 8° C.): 85.5%
G6P-DH activity ([5]; 220 days at 2 to 8° C.): 3.12 U/ml
G6P-DH activity relative to day 0 ([5]; 220 days at 2 to 8° C.): 84.7%
G6P-DH activity ([5]; 308 days at 2 to 8° C.): 2.98 U/ml
G6P-DH activity relative to day 0 ([5]; 308 days at 2 to 8° C.): 80.9%
G6P-DH activity ([5]; 345 days at 2 to 8° C.): 2.65 U/ml
G6P-DH activity relative to day 0 ([5]; 345 days at 2 to 8° C.): 72.0%
G6P-DH activity ([5]; 451 days at 2 to 8° C.): 2.12 U/ml
G6P-DH activity relative to day 0 ([5]; 451 days at 2 to 8° C.): 57.6%

From US6413733B1, “Stabilized reagent and method for determining creatine kinase” (Roche Diagnostics GmbH, priority 1997, dated 2002)
